Read-outs that look alike come from different tables or passages of the source.
Columns and labels:
CDC7/DBF4 kinase = CDC7/DBF4 kinase (Homo sapiens, UniProt O00311); experiment: ADP-Glo kinase assay, inhibition of CDC7/DBF4 kinase activity; type: biochemical; conditions: for IC50: CDC7/DBF4, 10 μM ATP
Excerpt: The ADP-Glo™ kinase assay is a chemiluminescent kinase assay. The reaction of kinase with substrate requires ATP to provide energy, thereby converting ATP into ADP. The enzymatic activity is reflected by the amount of ADP produced in the reaction. In the assay, ADP is converted into ATP, and then ATP binds to Ultra-Glo™ Luciferase with light emitted; the intensity of light emission is directly proportional to the amount of ADP.
The ADP-Glo™ assay was used to investigate the inhibitory effect of crystal form A of the test compound of formula (II) on the activity of CDC7/DBF4 kinase. The highest concentration of the test compound was 10 μM, and 5-fold serial dilution was performed to obtain 8 concentration points. The compound was re-tested on a different day, and each test was performed in duplicate.
• 1) Preparation of 10 mM DTT (freshly prepared at the time of use) • 1 μL of 0.1 M DTT was measured out and 9 μL of deionized water was added. • 2) 2× assay buffer (freshly prepared at the time of use) • 168 μL of Kinase assay buffer III was measured out and 2.5-fold diluted with 248 μL of deionized water, and 4.2 μL of 10 mM DTT was added. The buffer was kept on ice before use. • 3) 1× assay buffer (freshly prepared at the time of use) • 250 μL of 2× assay buffer was measured out and diluted into 1× assay buffer by adding 250 μL of deionized water. The buffer was kept on ice before use. • 4) ADP-Glo Kinase Assay
The kit contains an ADP-Glo™ reagent, a kinase assay solution, a kinase assay solution matrix and a 10 mM ATP stock solution.
Preparation of the kinase assay solution: The kinase assay buffer and the kinase assay solution matrix were equilibrated to room temperature and then mixed. After complete dissolution, the solution was ready. The unused solution should be aliquoted and stored at −20° C.
ADP-Glo™ reagent: The reagent was equilibrated to room temperature at the time of the first use. The unused solution should be aliquoted and stored at −20° C.
• 1) 10 mM test compound was diluted to 1 mM with 100% DMSO: 5 μL of 10 mM test compound was added to 45 μL of 100% DMSO; the concentration of the compound dilution was 1 mM, and the dilution was put into row A of a 384-well compound plate as the highest concentration. • 2) To row B through row H of the 384-well compound plate was added 20 μL of 100% DMSO. • 3) From row A, 5 μL of compound was transferred to row B, and the mixture was well mixed. Then 5 μL of compound was transferred from row B to row C, and the mixture was well mixed. This procedure was repeated to row H to complete the serial dilution of the compound. • 4) Preparation of compound working solutions: 0.5 μL/well of compound was transferred to a new 384-well compound plate, and 9.5 μL of 1× assay buffer was added. […]

[1] = Hygroscopicity test (25° C., saturated ammonium chloride solution, 24 h); type: physicochemical; conditions: 25° C./80% RH criteria
Procedure: A dry glass weighing bottle with a lid was placed in a dryer with saturated ammonium chloride solution placed in the lower part, and the weighing bottle was left to stand uncovered. A lid was put on the dryer, and the dryer was placed in a 25° C. box and left to stand overnight. After being left to stand overnight, the weighing bottle was taken out and precisely weighed, and the weight was denoted by m1.
A proper amount of crystal form A of the compound of formula (II) was measured out and spread in the weighed measuring bottle (the sample was about 1 mm thick). The measuring bottled was then precisely weighed, and the weight was denoted by m2.
The weighing bottle, together with its lid, was placed in a dryer with saturated ammonium chloride solution placed in the lower part and left to stand uncovered. A lid was put on the dryer, and the dryer was placed in a 25° C. box and left to stand for 24 h. After 24 h of sitting, the lid was put on the weighing bottle and the bottle was taken out and precisely weighed, the weight denoted by m3.
The hygroscopic weight gain was calculated using the formula: percent weight gain=100%×(m3−m2)/(m2−m1).

COLO205 cells = experiment: CellTiter-Glo cell viability assay, proliferation of COLO205 cells; type: cell-based, Human; conditions: for IC50: Homo sapiens, COLO 205, 72 h, COLO205, 3 days incubation
Excerpt: In the assay, the inhibitory effect of crystal form A of the compound of formula (II) on the proliferation of colorectal cell COLO205 that highly expresses Cdc7 was investigated.
CellTiter-Glo® Luminescent Cell Viability Assay is a homogeneous rapid assay for the viability of living cells in cultures by ATP quantification. ATP is an indicator of the metabolism of living cells. Cell lysis and the luminescence signals generated are directly proportional to the amount of ATP that exists, and the amount of ATP is directly proportional to the number of living cells in cultures.
Cells having achieved 80%-90% cell fusion were digested with pancreatin. After the digestion was stopped with 1 mL of culture medium, the cells were transferred to a new culture dish according to a proper proportion, and 10 mL of fresh cell culture medium was added to the culture dish. Then the cell culture dish was placed in a 37° C., 5% CO2 incubator to continue the culture.
The compound was diluted to 2 mM with 100% DMSO—that is, 5 μL of 10 mM compound stock solution was transferred to column 1 of a 96-well compound plate, 20 μL of 100% DMSO was then added, and the mixture was well mixed. To column 2 through column 9 of the 96-well compound plate was added 20 μL of 100% DMSO. From column 1, 10 μL of compound was transferred to column 2, and the mixture was well mixed. Then 10 μL of compound was transferred from column 2 to column 3, and the mixture was well mixed. This procedure was repeated to column 9 to complete the serial dilution of the compound. Preparation of compound working solutions: From the compound plate, 2 μL/well of compound was transferred to a new 96-well compound plate, and 78 μL/well of cell culture medium was added. To a negative control well was added 2 μL of 100% DMSO followed by 78 μL of cell culture medium. The compound concentration was the final concentration. The blank control well was a culture medium well containing no cells. The negative control was […].
COLO205 cells having achieved 80%-90% cell fusion were digested with pancreatin and counted. After counting, the cell suspension was diluted with cell culture medium to a desired density. To each well of a 96-well cell culture plate was inoculated 80 μL of cell suspension. […]
After the incubation, 100 μL of CTG assay reagent was added to each well of the cell plate, and the plate was incubated at 25° C. for 10 min. After the incubation, luminescence signals were measured on Envision.
The signal value of the background blank control well was subtracted from the measured signal value of each group for standardization. […]
The percent inhibition was calculated from the original readings according to the calculation formula. A graph was then plotted using Prism and the IC50 of the compound was calculated.

[2] = Stability test under accelerated conditions (HPLC related substances, appearance, crystal form, ee); type: physicochemical; parameters: impurity at RRT 0.31 / impurity at RRT 1.40 / impurity at RRT 0.23 / impurity at RRT 0.91 / impurity at RRT 0.98 / impurity at RRT 0.99 / impurity at RRT 1.08: unit not given here
Procedure: Instrument model: Agilent 1200 high performance liquid chromatograph
50 mg of crystal form A of the compound of formula (II) was measured and placed in a dry, clean glass bottle, spread into a thin layer, and left to stand under accelerated conditions (60° C., 25/92.5% RH, 40° C./75% RH and 60° C./75% RH). The sample was completely exposed, and the bottle was covered with aluminum foil in which holes are pricked. Samples were taken at 5 days, 10 days, 1 month, 2 months and 3 months and analyzed.

Sequence of CDC7/DBF4 kinase (O00311 whole entry): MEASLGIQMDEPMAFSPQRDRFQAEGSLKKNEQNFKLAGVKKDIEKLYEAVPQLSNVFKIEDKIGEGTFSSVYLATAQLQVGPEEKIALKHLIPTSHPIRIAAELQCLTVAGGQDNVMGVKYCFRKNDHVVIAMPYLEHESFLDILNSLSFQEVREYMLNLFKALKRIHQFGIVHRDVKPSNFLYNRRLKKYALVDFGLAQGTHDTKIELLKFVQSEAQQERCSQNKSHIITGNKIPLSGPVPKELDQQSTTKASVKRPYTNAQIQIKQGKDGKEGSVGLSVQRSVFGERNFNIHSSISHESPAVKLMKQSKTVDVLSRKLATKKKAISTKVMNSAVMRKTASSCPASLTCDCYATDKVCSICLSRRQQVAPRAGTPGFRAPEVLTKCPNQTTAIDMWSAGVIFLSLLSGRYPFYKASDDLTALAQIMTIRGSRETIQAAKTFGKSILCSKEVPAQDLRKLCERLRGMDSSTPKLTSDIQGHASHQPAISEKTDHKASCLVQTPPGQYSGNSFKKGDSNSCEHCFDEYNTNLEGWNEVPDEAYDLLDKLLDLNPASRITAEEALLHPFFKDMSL
Sequence of CDC7/DBF4 kinase (Q9UBU7 whole entry partner): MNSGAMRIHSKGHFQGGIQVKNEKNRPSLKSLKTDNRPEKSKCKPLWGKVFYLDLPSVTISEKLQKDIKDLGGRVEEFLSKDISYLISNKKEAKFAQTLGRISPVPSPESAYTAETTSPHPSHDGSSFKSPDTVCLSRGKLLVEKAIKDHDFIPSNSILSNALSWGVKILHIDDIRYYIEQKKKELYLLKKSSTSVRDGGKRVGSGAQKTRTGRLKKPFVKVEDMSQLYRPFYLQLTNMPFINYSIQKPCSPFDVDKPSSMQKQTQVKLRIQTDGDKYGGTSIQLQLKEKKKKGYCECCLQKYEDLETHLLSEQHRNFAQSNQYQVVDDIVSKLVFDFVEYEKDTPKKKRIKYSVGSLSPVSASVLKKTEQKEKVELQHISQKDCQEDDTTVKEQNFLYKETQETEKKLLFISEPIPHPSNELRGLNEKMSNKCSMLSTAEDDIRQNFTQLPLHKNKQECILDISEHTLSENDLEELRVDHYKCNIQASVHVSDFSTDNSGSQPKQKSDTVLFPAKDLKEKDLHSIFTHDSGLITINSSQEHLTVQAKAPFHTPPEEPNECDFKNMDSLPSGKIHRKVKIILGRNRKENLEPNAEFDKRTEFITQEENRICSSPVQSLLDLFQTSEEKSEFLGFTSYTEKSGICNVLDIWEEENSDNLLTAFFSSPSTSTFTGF

O=C(O)/C=C\C(=O)O.O=c1[nH]c([C@@H]2CC3CCN2CC3)nc2c3c(sc12)-c1cn[nH]c1CCC3
IC50 (CDC7/DBF4 kinase; first assay, read-out: IC50 (nM) First assay): 3.49 nM | IC50 (CDC7/DBF4 kinase; mean of two assays, read-out: IC50 (nM) Mean): 2.92 nM | IC50 (CDC7/DBF4 kinase; second assay, read-out: IC50 (nM) Second assay): 2.35 nM | inhibitory effect on enzyme CDC7/DBF4 (CDC7/DBF4 kinase; conclusion in words): relatively strong inhibitory effect | category of hygroscopicity [1]: non-hygroscopic or hardly hygroscopic | IC50 (COLO205 cells; first assay, read-out: COLO205(nM) IC50 First assay): 14.3 nM | IC50 (COLO205 cells; mean of two assays, read-out: COLO205(nM) IC50 Mean): 14.5 nM | IC50 (COLO205 cells; second assay, read-out: COLO205(nM) IC50 Second assay): 14.7 nM | inhibitory effect on COLO205 cells (COLO205 cells; conclusion in words): relatively strong inhibitory effect | Appearance ([2]; 0 days): White | ee % ([2]; 0 days): 99.028% | impurity at RRT 0.31 ([2]; 0 days): 0.02 | Appearance ([2]; 25/92.5% RH-5 days): White | TRS(%) total impurity content ([2]; 25/92.5% RH-5 days): 0.03% | ee % ([2]; 25/92.5% RH-5 days): 98.77% | impurity at RRT 0.31 ([2]; 25/92.5% RH-5 days): 0.03 | Appearance ([2]; 25/92.5% RH-10 days): White | TRS(%) total impurity content ([2]; 25/92.5% RH-10 days): 0.06% | ee % ([2]; 25/92.5% RH-10 days): 98.958% | impurity at RRT 0.31 ([2]; 25/92.5% RH-10 days): 0.03 | impurity at RRT 1.40 ([2]; 25/92.5% RH-10 days): 0.03 | Appearance ([2]; 40° C./75% RH-1 month): White | TRS(%) total impurity content ([2]; 40° C./75% RH-1 month): 0.02% | ee % ([2]; 40° C./75% RH-1 month): 99.380% | impurity at RRT 0.31 ([2]; 40° C./75% RH-1 month): 0.02 | Appearance ([2]; 40° C./75% RH-2 months): White | TRS(%) total impurity content ([2]; 40° C./75% RH-2 months): 0.02% | ee % ([2]; 40° C./75% RH-2 months): 100% | impurity at RRT 0.91 ([2]; 40° C./75% RH-2 months): 0.02 | Appearance ([2]; 40° C./75% RH-3 months): White | TRS(%) total impurity content ([2]; 40° C./75% RH-3 months): 0% | ee % ([2]; 40° C./75% RH-3 months): 100% | Appearance ([2]; 40° C./75% RH-10 days): White | TRS(%) total impurity content ([2]; 40° C./75% RH-10 days): 0.04% | ee % ([2]; 40° C./75% RH-10 days): 99.164% | impurity at RRT 0.23 ([2]; 40° C./75% RH-10 days): 0.02 | impurity at RRT 0.31 ([2]; 40° C./75% RH-10 days): 0.02 | Appearance ([2]; 60° C.-5 days): White | TRS(%) total impurity content ([2]; 60° C.-5 days): 0.06% | ee % ([2]; 60° C.-5 days): 98.632% | impurity at RRT 0.23 ([2]; 60° C.-5 days): 0.03 | impurity at RRT 0.31 ([2]; 60° C.-5 days): 0.03 | Appearance ([2]; 60° C.-10 days): White | TRS(%) total impurity content ([2]; 60° C.-10 days): 0.10% | ee % ([2]; 60° C.-10 days): 98.900% | impurity at RRT 0.23 ([2]; 60° C.-10 days): 0.02 | impurity at RRT 0.31 ([2]; 60° C.-10 days): 0.03 | impurity at RRT 1.08 ([2]; 60° C.-10 days): 0.05 | Appearance ([2]; 60° C./75% RH-1 month): White | TRS(%) total impurity content ([2]; 60° C./75% RH-1 month): 0.08% | ee % ([2]; 60° C./75% RH-1 month): 100% | impurity at RRT 0.23 ([2]; 60° C./75% RH-1 month): 0.02 | impurity at RRT 0.98 ([2]; 60° C./75% RH-1 month): 0.03 | impurity at RRT 0.99 ([2]; 60° C./75% RH-1 month): 0.03 | Appearance ([2]; 60° C./75% RH-10 days): White | TRS(%) total impurity content ([2]; 60° C./75% RH-10 days): 0.03% | ee % ([2]; 60° C./75% RH-10 days): 98.872% | impurity at RRT 0.23 ([2]; 60° C./75% RH-10 days): 0.03 | stability (impurity content) under high temperature and high humidity conditions ([2]; conclusion in words): the stability is good

Source: patent US20240025920A1, “SALT FORM USED AS CDC7 INHIBITOR AND CRYSTAL FORM THEREOF” (Chia Tai Tianqing Pharmaceutical Group Co., Ltd., priority 2020, published 2024)
